In general, pIC50 refers to the negative decadic logarithm of the IC50, by convention in mol/L. What is called melting point is the temperature, or range, at which the solid turns liquid.

Here are results for three compounds from patent US7723331B2, “Thienopyrimidine compounds and uses thereof” (AstraZeneca AB, priority 2006, dated 2010).

Data set [1] concerns the target T1, human melanin concentrating hormone receptor 1 (hMCHr1) (Homo sapiens, UniProt Q99705).
T1 construct: purchased Euroscreen; host or cells: CHO-K1
Description: MCHr1 radioligand binding (125I-MCH displacement). The settings on record: membranes from CHO-K1 cells expressing hMCHr1, 125I-MCH. As to the method: Assays were performed on membranes prepared from CHO-K1 cells expressing the human melanin concentrating hormone receptor 1 (hMCHr1, […] protein; Euroscreen). Assays were performed in a 96-well plate format in a final reaction volume of […] per well. Each well contained 6 μg of membrane proteins diluted in binding buffer (50 mM Tris, 3 mM MgCl2, 0.05% bovine serum albumin and the radioligand ^125I-MCH (IM344 Amersham) was added to give 10 000 cpm (counts per minute) per well. Each well contained 2 μl of the appropriate concentration of competitive antagonist prepared in DMSO or in HOAc and left to stand at 30° C. for 60 minutes. Non-specific binding was determined as that remaining following incubation with 1 μM MCH (Melanin concentrating hormone, H-1482 Bachem). The reaction was terminated by transfer of the reaction to GF/A filters using a Micro96 Harvester (Skatron Instruments, Norway). Filters were washed with assay buffer. Radioligand retained on the filters was quantified using a 1450 Microbeta TRILUX (Wallac, Finland).
Non-specific binding was subtracted from all values determined. Maximum binding was that determined in the absence of any competitor following subtraction of the value determined for non-specific binding. Binding of compounds at various concentrations was plotted according to the equation y=A+((B−A)/1+((C/x)^D))) and IC50 estimated where: […]

Data set [2] deals with hERG (Homo sapiens, UniProt Q12809). The experiment in a line: hERG activity (planar-array-based voltage clamp). As to conditions: modified method of Kiss et al. Type of data set: cell-based. How it is done: hERG testing was performed using a modified version of the method described by Kiss et al., “High throughput ion-channel pharmacology: planar-array-based voltage clamp.” Assay Drug Dev Technol., 2003, 1, 127-35.

Data set [3] concerns the target T2, recombinant hMCHr1 (Homo sapiens, UniProt Q99705).
T2 construct: purchased Euroscreen
The experiment in a line: MCHr1 functional assay ([35S]GTPγS). Type of data set: biochemical. As to conditions: hMCHr1 membranes, ED80 concentration of MCH. How it is done: Membranes expressing recombinant hMCHr1 (5.45 pmol/mg protein; Euroscreen) were prepared in assay buffer (50 mM HEPES, 100 mM NaCl, 5 mM MgCl2, 1 mM EDTA, 200 μM DTT, 20 μM GDP (Sigma) containing 0.1 μg/ml BSA, pH7.4) before assay. The assays were performed using membranes at 6 μg/well in an assay volume of 200 μL and the appropriate concentrations of compounds prepared in DMSO or in HOAc. The reaction was started by addition of 0.056 nM [^35S]GTPγS (Specific activity >1000 Ci/mmol; Amersham) and an ED80 concentration of MCH (determined for each membrane and each MCH batch). Non-specific binding was determined using 20 μM non-radiolabelled GTPγS. Plates were incubated for 45 min at 30° C. Free and bound GTPγS were separated by filtration binding using GF/B filter mats presoaked in wash buffer (50 mM Tris, 5 mM MgCl2, 50 mM NaCl, pH 7.4) using a Micro96 cell harvester (Skatron Instruments) and the filters then dried at 50° C. before counting using a 1450 Microbeta TRILUX (Wallac).
Data are means±SD for experiments performed in triplicate. IC50 values of antagonists were determined using non-linear regression analysis of concentration response curves using Activity Base.

pIC50: −log10 of the molar value.

T1 sequence (Q99705 whole entry): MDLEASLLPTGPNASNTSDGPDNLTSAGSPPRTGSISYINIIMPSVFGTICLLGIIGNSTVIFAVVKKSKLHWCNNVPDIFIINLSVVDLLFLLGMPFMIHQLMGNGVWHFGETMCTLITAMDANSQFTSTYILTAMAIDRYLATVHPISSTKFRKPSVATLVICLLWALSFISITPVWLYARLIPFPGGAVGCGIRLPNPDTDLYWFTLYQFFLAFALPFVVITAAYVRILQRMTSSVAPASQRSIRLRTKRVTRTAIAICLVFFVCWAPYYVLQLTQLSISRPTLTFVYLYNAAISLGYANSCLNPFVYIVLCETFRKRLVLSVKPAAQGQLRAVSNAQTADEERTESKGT
T2 sequence (Q99705 whole entry): as above
hERG, sequence (Q12809 whole entry): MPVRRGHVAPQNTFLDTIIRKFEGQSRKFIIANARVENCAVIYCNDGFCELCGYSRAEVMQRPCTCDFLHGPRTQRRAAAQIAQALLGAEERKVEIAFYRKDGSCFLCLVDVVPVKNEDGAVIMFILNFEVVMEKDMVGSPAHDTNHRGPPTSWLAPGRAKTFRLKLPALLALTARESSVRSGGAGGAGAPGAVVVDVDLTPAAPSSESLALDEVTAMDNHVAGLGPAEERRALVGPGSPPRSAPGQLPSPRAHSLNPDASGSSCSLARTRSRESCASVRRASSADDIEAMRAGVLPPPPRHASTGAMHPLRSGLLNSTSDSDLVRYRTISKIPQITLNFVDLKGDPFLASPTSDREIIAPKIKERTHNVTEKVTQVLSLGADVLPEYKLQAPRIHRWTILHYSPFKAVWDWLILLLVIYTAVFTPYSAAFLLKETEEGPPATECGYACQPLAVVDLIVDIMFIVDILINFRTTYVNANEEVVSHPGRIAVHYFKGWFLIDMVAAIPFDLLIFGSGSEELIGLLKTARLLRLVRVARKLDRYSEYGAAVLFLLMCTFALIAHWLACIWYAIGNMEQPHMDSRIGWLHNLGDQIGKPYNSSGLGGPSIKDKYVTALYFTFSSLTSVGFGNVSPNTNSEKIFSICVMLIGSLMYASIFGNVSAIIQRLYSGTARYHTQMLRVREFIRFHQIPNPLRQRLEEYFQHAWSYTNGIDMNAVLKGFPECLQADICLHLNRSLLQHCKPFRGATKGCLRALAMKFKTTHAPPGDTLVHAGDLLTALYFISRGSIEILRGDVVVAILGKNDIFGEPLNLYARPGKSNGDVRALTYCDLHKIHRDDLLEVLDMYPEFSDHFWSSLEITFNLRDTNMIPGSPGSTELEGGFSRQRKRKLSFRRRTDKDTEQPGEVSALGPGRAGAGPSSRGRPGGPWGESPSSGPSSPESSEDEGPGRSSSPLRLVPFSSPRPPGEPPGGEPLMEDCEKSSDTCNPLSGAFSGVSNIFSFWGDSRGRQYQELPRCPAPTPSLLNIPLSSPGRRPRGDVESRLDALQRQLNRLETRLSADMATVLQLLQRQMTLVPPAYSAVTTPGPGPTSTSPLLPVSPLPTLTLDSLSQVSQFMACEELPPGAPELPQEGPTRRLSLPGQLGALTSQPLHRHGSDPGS

As to `CN1[C@@H]2CC[C@H]1C[C@@H](Oc1cccc(Cn3cnc4cc(-c5ccc(Cl)cc5)sc4c3=O)c1)C2` [Example 1, 6-(4-Chlorophenyl)-3-(3-{[(3-endo)-8-methyl-8-azabicyclo[3.2.1]oct-3-yl]oxy}benzyl)thieno[3,2-d]pyrimidin-4(3H)-one], the pIC50 in data set [1] was 7.59; in data set [2], 5.19.

`CN1CCN(Cc2cccc(Cn3cnc4cc(-c5ccc(Cl)cc5)sc4c3=O)c2)CC1` [Example 5, 6-(4-Chlorophenyl)-3-{3-[(4-methylpiperazin-1-yl)methyl]benzyl}thieno[3,2-d]pyrimidin-4(3H)-one]: in data set [3], the pIC50 is 7.38.

`CN1CCC(Oc2cccc(Cn3cnc4cc(-c5ccc(Cl)cc5)sc4c3=O)n2)CC1` [Example 11, 6-(4-Chlorophenyl)-3-({6-[(1-methylpiperidin-4-yl)oxy]pyridin-2-yl}methyl)thieno[3,2-d]pyrimidin-4(3H)-one] returned a melting point of 202 to 203 °C.
